Test [1] has as its target HCV NS3/4A protease complex, BMS strain (UniProt P27958, C1454S/C1711G, species not given/STRAIN_BMS). Description: Recombinant HCV NS3/4A protease complex FRET peptide assay (BMS strain). The format is biochemical, HCV genotype 1a. A digest of the protocol:
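Recombinant BMS-strain NS3/4A (His-tagged NS4A with three-lysine tail, E. coli) at 2-3 nM preincubated 1 min with compound, then 2 μM ester-linked NS4A/NS4B-based FRET peptide added. Fluorescence followed in real time ~15 min at 25° C. Percent inhibition from slope of linear fluorescence change versus no-compound control.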

The subject of test [2] is HCV replicon in Huh7 cells. Description: HCV replicon cell-based assay. Set-up: species or system HCV strain 1B. To be noted: Hepatitis C virus, Huh-7; HCV replicon, Huh7 cells; read-out: EC50 range. The text has this:
HCV Replicon Cell-based Assay
This system enabled us to evaluate the effects of our HCV Protease compounds on HCV RNA replication. Briefly, using the HCV strain 1B sequence described in the Lohmann paper (Assession number:AJ238799), an HCV cDNA was generated encoding the 5′ internal ribosome entry site (IRES), the neomycin resistance gene, the EMCV (encephalomyocarditis virus)-IRES and the HCV nonstructural proteins, NS3-NS5B, and 3′ non-translated region (NTR). In vitro transcripts of the cDNA were transfected into the human hepatoma cell line, Huh7. […] Resulting cell lines were characterized for positive and negative strand RNA production and protein production over time.
Huh7 cells, constitutively expressing the HCV replicon, were grown in Dulbecco's Modified Eagle Media (DMEM) containing 10% Fetal calf serum (FCS) and 1 mg/ml G418 (Gibco-BRL). Cells were seeded the night before (1.5×10^4 cells/well) in 96-well tissue-culture sterile plates. Compound and no compound controls were prepared in DMEM containing 4% FCS, 1:100 Penicillin/Streptomysin, 1:100 L-glutamine and 5% DMSO in the dilution plate (0.5% DMSO final concentration in the assay). Compound/DMSO mixes were added to the cells and incubated for 4 days at 37° C. After 4 days, plates were rinsed thoroughly with Phosphate-Buffered Saline (PBS) (3 times 150 μl). The cells were lysed with 25 μl of a lysis assay reagent containing the FRET peptide (RET S1, as described for the in vitro enzyme assay). The lysis assay reagent was made from 5× cell Luciferase cell culture lysis reagent(Promega #E153A) diluted to 1× with distilled water, NaCl added to 150 mM final, the FRET peptide diluted to 10 μM final from a 2 mM stock in 100% DMSO. The plate was then placed into the Cytofluor 4000 instrument which had been set to 340 nm excitation/490 emission, automatic mode for 21 cycles and the plate read in a kinetic mode. EC50 determinations were carried out as described for the IC50 determinations.
Cells were lyzed using the Rneasy kit (Qiagen). […] All primers were designed with ABI Prism 7700 software and obtained from Biosearch Technologies, Novato, Calif. Samples containing known concentrations of HCV RNA transcript were run as standards. Using the following cycling protocol (50° C., 30 min; 95° C., 5 min; 40 cycles of 95° C., 15 sec, 60° C., 1 min), HCV RNA expression was quantitated as described in the Perkin Elmer manual using the ABI Prism 7700 Sequence Detector.

The mark [3] stands for this setting: NS3/4A BMS strain; read-out: IC50 range.
Where [4] appears, read: read-out: IC50 range; NS3/4A BMS strain.

Like-named read-outs stand apart in the source and are kept apart here. Some results are limits rather than exact numbers.

A word on the IC50: it is the concentration at which inhibition is half-maximal. A word on the EC50: it is the midpoint of the concentration-response curve. As to `C=CC1C[C@]1(NC(=O)[C@@H]1C[C@@H](Oc2nccc3cc(CC)ccc23)CN1C(=O)[C@@H](NC(=O)OC(C)(C)C)C(C)(C)C)C(=O)NS(=O)(=O)C1CC1` (stereo partly drawn) [Compound 189, BOCNH-P3(L-tert-BuGly)-P2[(4R)-(6-ethyl isoquinolin-1-oxo)-S -proline]-P1(1R,2S Vinyl Acca)-CONHSO2-Cyclopropane], the IC50 in test [1] (setting [3]) was < 100 nM. The EC50 in test [2] fell in the range of 100 to 1000 nM.
On the same counts, the results for `C=CC1CC1(NC(=O)[C@@H]1C[C@@H](Oc2cc(-c3ccccc3)nc3c(C)noc23)CN1C(=O)[C@@H](NC(=O)OC(C)(C)C)C(C)(C)C)C(=O)NS(=O)(=O)C1CC1` (stereo partly drawn) [Compound 10] are < 100 nM and < 100 nM.
On the same counts, the results for `C=C[C@@H]1C[C@]1(NC(=O)[C@@H]1C[C@@H](Oc2nccc3c(Cl)cccc23)CN1C(=O)[C@@H](NC(=O)OC(C)(C)C)C(C)(C)C)C(=O)NS(=O)(=O)C1CC1` [Compound 254] are < 100 nM and < 100 nM.
As for `C=C[C@@H]1C[C@]1(NC(=O)[C@@H]1C[C@@H](Oc2nc(N3CCOCC3)cc3cc(OC)ccc23)CN1C(=O)[C@@H](NC(=O)OC(C)(C)C)C(C)(C)C)C(=O)NS(=O)(=O)C1CC1` [Compound 385], the IC50 in test [1] (setting [3]) was < 100 nM. Also, in test [2], the EC50 was < 100 nM.
`C=C[C@@H]1C[C@]1(NC(=O)[C@@H]1CC(Oc2nccc3cc(OC)ccc23)CN1C(=O)[C@@H](NC(=O)c1cnccn1)C(C)(C)C)C(=O)NS(=O)(=O)C1CC1` (stereo partly drawn) [Compound 63]: in test [1] (setting [3]), the IC50 is < 100 nM. The 50% effective concentration (EC50) in test [2] lay within 1000 to 10000 nM.
On the same counts, the results for `C=C[C@@H]1C[C@]1(NC(=O)[C@@H]1CC(Oc2nccc3cc(OC)ccc23)CN1C(=O)[C@@H](NC(=O)NC(C)(C)c1ccccc1)C(C)(C)C)C(=O)NS(=O)(=O)C1CC1` (stereo partly drawn) [Compound 83] are < 100 nM and 100 to 1000 nM.
Turning to `C=C[C@@H]1C[C@]1(NC(=O)[C@@H]1C[C@@H](Oc2nccc3c(F)c(OC)ccc23)CN1C(=O)[C@@H](NC(=O)OC(C)(C)C)C(C)(C)C)C(=O)NS(=O)(=O)C1CC1` [Compound 274], the IC50 in test [1] (setting [3]) is < 100 nM. In test [2], the EC50 was 100 to 1000 nM.
As to `C=C[C@@H]1C[C@]1(NC(=O)[C@@H]1C[C@@H](Oc2cc(-c3ccccc3)nc(-c3ccccc3)c2)CN1C(=O)[C@@H](NC(=O)OC(C)(C)C)C(C)(C)C)C(=O)NS(=O)(=O)C1CC1` [Compound 415], the IC50 in test [1] (setting [3]) is < 100 nM. In addition, the EC50 in test [2] is < 100 nM.
As to `C=C[C@@H]1C[C@]1(NC(=O)[C@@H]1C[C@@H](Oc2ccnc(-c3ccccc3)c2)CN1C(=O)[C@@H](NC(=O)OC1CCCC1)C(C)(C)C)C(=O)NS(=O)(=O)C1CC1` [Compound 421], the IC50 in test [1] (setting [3]) is < 100 nM. The EC50 in test [2] lay in the range of 100 to 1000 nM.
`C=C[C@@H]1C[C@]1(NC(=O)[C@@H]1C[C@@H](Oc2nccc3cc(OC)ccc23)CN1C(=O)[C@@H](NC(=O)OC(C)(C)C)[C@@H](C)OC)C(=O)NS(=O)(=O)C1CC1` [Compound 92]: the IC50 in test [1] (setting [3]) was < 100 nM. Besides, in test [2], the 50% effective concentration (EC50) was < 100 nM.
In the case of `C=C[C@@H]1CC1(NC(=O)[C@@H]1CC(Oc2nccc3cc(OC)ccc23)CN1C(=O)[C@@H](NC(=O)OCc1ccccc1)C(C)(C)C)C(=O)NS(=O)(=O)C1CC1` (stereo partly drawn) [Compound 64], in test [1] (setting [4]), the IC50 was < 100 nM. Besides, in test [2], the EC50 is < 100 nM.
As to `C=C[C@@H]1C[C@]1(NC(=O)[C@@H]1C[C@@H](Oc2nccc3ccccc23)CN1C(=O)[C@@H](NC(=O)OCCCCCC)C(C)(C)C)C(=O)NS(=O)(=O)C1CC1` [Compound 129], the IC50 in test [1] (setting [3]) was in the range of 100 to 1000 nM. Further, the EC50 in test [2] was in the range of 100 to 1000 nM.
Turning to `C=CC1C[C@]1(NC(=O)[C@@H]1C[C@@H](Oc2ccnc3c(C(F)(F)F)cccc23)CN1C(=O)[C@@H](NC(=O)OC(C)(C)C)C(C)(C)C)C(=O)NS(=O)(=O)C1CC1` (stereo partly drawn) [Compound 186, BOCNH-P3(L-tert-BuGly)-P2[(4R)-(8-trifluoromethyl quinolin-4-oxo)-S-proline]-P1(1R,2S Vinyl Acca)-CONHSO2-Cyclopropane], the IC50 in test [1] (setting [3]) was < 100 nM. Besides, the EC50 in test [2] was < 100 nM.
Turning to `CC[C@@H]1C[C@]1(NC(=O)[C@@H]1C[C@@H](Oc2nccc3cc(OC)ccc23)CN1C(=O)[C@@H](NC(=O)OC(C)(C)C)C(C)(C)C)C(=O)NS(=O)(=O)C(C)C` [Compound 15], the IC50 in test [1] (setting [3]) fell in the range of 100 to 1000 nM. In test [2], the EC50 lay in the range of 1000 to 10000 nM.
Turning to `C=C[C@@H]1C[C@]1(NC(=O)[C@@H]1C[C@@H](Oc2ccc3c(OC)cnc(Cl)c3c2)CN1C(=O)[C@@H](NC(=O)OC(C)(C)C)C(C)(C)C)C(=O)NS(=O)(=O)C1CC1` [Compound 283], the IC50 in test [1] (setting [3]) is < 100 nM. Further, the EC50 in test [2] fell in the range of 100 to 1000 nM.
Consider `C=C[C@@H]1C[C@]1(NC(=O)[C@@H]1C[C@@H](Oc2nccc3c(OC)c(Cl)ccc23)CN1C(=O)[C@@H](NC(=O)OC(C)(C)C)C(C)(C)C)C(=O)NS(=O)(=O)C1CC1` [Compound 276], for which the half-maximal inhibitory concentration (IC50) in test [1] (setting [3]) is < 100 nM. The EC50 in test [2] is < 100 nM.
Take `C=CC1C[C@]1(NC(=O)[C@@H]1C[C@@H](Oc2nccc(-c3cccs3)n2)CN1C(=O)[C@@H](NC(=O)OC)C(C)(C)C)C(=O)NS(=O)(=O)C1CC1` (stereo partly drawn) [Compound 337]: in test [1] (setting [3]), the IC50 is 100 to 1000 nM. In addition, the EC50 in test [2] was in the range of 1000 to 10000 nM.
As for `C=C[C@@H]1C[C@]1(NC(=O)[C@@H]1C[C@@H](Oc2ncc(C)c3ccccc23)CN1C(=O)[C@@H](NC(=O)OC(C)(C)C)C(C)(C)C)C(=O)NS(=O)(=O)C1CC1` [Compound 250], the IC50 in test [1] (setting [3]) is < 100 nM. For the same molecule, the EC50 in test [2] is < 100 nM.
As to `C=C[C@@H]1C[C@]1(NC(=O)[C@@H]1C[C@@H](Oc2nccc3cc(OC)ccc23)CN1C(=O)[C@@H](N)[C@H](C)OC)C(=O)NS(=O)(=O)C1CC1` [Compound 100], the IC50 in test [1] (setting [4]) fell in the range of 100 to 1000 nM. For the same molecule, in test [2], the EC50 lay within 1000 to 10000 nM.
As to `C=CC1C[C@]1(NC(=O)[C@@H]1C[C@@H](Oc2nnc(O)c3ccccc23)CN1C(=O)[C@@H](NC(=O)OC(C)(C)C)C(C)(C)C)C(=O)NS(=O)(=O)C1CC1` (stereo partly drawn) [Compound 202, BOCNH-P3(L-t-BuGly)-P2[(4R)-(4-hydroxyphthalazine-1-oxo)-S -proline]P1(1R,2S VinylAcca)-CONHSO2Cyclopropane], the IC50 in test [1] (setting [3]) was < 100 nM. Besides, in test [2], the EC50 was 1000 to 10000 nM.
For the molecule `C=C[C@@H]1C[C@]1(NC(=O)[C@@H]1C[C@@H](Oc2nccc3ccc(C)cc23)CN1C(=O)[C@@H](NC(=O)OC(C)(C)C)C(C)(C)C)C(=O)NS(=O)(=O)C1CC1` [Compound 259], the IC50 in test [1] (setting [3]) is < 100 nM. In addition, the EC50 in test [2] is < 100 nM.
With `C=CC1C[C@]1(NC(=O)[C@@H]1C[C@@H](COc2cncc(-c3ccsc3)c2)CN1C(=O)[C@@H](NC(=O)OC)C(C)(C)C)C(=O)NS(=O)(=O)C1CC1` (stereo partly drawn) [Compound 347], in test [1] (setting [4]), the IC50 was in the range of 100 to 1000 nM. Besides, the EC50 in test [2] was 10000 to 100000 nM.
`C=C[C@@H]1C[C@]1(NC(=O)[C@@H]1C[C@@H](Oc2nccc3c(Cl)c(OC)ccc23)CN1C(=O)[C@@H](NC(=O)OC(C)(C)C)C(C)(C)C)C(=O)NS(=O)(=O)C1CC1` [Compound 275]: the IC50 in test [1] (setting [3]) is < 100 nM. In addition, the EC50 in test [2] was < 100 nM.
Consider `C=C[C@@H]1C[C@]1(NC(=O)[C@@H]1C[C@@H](Oc2nccc3cc(OC)ccc23)CN1C(=O)C(NC(=O)OC(C)(C)C)C(C)c1ccccc1)C(=O)NS(=O)(=O)C1CC1` (single isomer, unassigned) [Compound 135], for which the IC50 in test [1] (setting [3]) is < 100 nM. Besides, in test [2], the EC50 lay within 100 to 1000 nM.
With `C=C[C@@H]1C[C@]1(NC(=O)[C@@H]1C[C@@H](Oc2nccc3cc(OC)ccc23)CN1C(=O)[C@@H](NC(=O)N[C@H](C(=O)OCc1ccccc1)C(C)C)C(C)(C)C)C(=O)NS(=O)(=O)C1CC1` [Compound 150], the IC50 in test [1] (setting [3]) is < 100 nM. The EC50 in test [2] is < 100 nM.
Turning to `C=C[C@@H]1C[C@]1(NC(=O)[C@@H]1CC(Oc2nccc3cc(OC)ccc23)CN1C(=O)[C@@H](NC(=O)OC(C)(C)C)C(C)(C)O)C(=O)NS(=O)(=O)C1CC1` (stereo partly drawn) [Compound 89], the IC50 in test [1] (setting [3]) was < 100 nM. For the same molecule, the concentration for a half-maximal effect (EC50) in test [2] is < 100 nM.
Regarding `C=C[C@@H]1C[C@]1(NC(=O)[C@@H]1C[C@@H](Oc2cc(-c3ccccc3OC)nc3c(C)noc23)CN1C(=O)[C@@H](NC(=O)OC(C)(C)C)C(C)(C)C)C(=O)NS(=O)(=O)C1CC1` [Compound 6], in test [1] (setting [3]), the IC50 lay within 100 to 1000 nM. The EC50 in test [2] lay within 100 to 1000 nM.
